Laboratory results as given in patent US4935449A, “N-2,3-butadienyl tri- and tetraaminoalkane derivatives” (Merrell Dow Pharmaceuticals Inc., priority 1988, dated 1990).

What was measured:
Rat Liver Pao = Rat Liver Pao (Rattus norvegicus, UniProt A0A8I6AEP5); experiment: In vitro inhibition of partially purified rat liver polyamine oxidase (PAO); type: biochemical
Procedure: Polyamine Oxidase Inhibition^1
Rat liver polyamine oxidase was purified by the procedure of Holtta, E.
step. Ki and .tau.50 were determined using the partially

PAO = PAO activity ex vivo in the liver of mice dosed i.p. 24 hours before; details: mouse liver, Dose 1.0 mg/kg i.p., control 18.7
Source text: MEASUREMENT OF PAO ACTIVITIES IN MOUSE TISSUES
Chim. Biophys. Acta 38: 69-76.

ODC = details: cited from earlier work
P. berghei = details: cited from earlier work
Eimeria spp. = details: cited from earlier work
P. gallinaceum = P. gallinaceum in chickens; cited from earlier work
Plasmodia spp. [1] = details: cited from earlier work
Plasmodia spp. [2] = details: liver of infected mice; cited from earlier work
Pneumocystis carinii = details: cited from earlier work
T. b. brucei = details: in mice; cited from earlier work
Plasmodia spp. [3] = details: in culture in vitro; cited from earlier work
natural polyamines = details: exposure of cells; cited from earlier work
L1210 cells = details: cited from earlier work
ODC and AdoMetDC = details: cited from earlier work

Rat Liver Pao, sequence (A0A8I6AEP5 62-564): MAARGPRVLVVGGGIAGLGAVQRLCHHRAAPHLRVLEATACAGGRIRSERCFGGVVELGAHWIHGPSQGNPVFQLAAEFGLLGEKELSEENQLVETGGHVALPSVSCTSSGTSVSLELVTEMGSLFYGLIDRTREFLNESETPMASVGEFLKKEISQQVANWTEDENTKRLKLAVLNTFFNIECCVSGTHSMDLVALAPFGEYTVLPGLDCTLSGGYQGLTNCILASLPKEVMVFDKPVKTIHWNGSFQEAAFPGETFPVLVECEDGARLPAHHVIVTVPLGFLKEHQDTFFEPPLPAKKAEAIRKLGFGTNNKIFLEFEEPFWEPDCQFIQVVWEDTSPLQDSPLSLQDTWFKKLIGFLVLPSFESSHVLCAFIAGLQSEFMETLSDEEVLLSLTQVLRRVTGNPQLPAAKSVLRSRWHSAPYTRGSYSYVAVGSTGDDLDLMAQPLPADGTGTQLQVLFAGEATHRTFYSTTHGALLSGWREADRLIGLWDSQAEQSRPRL

Row | SMILES | .tau.50 (Rat Liver Pao) | PAO Activity (PAO) | depletion of the natural polyamines (natural polyamines) | support of growth of L1210 cells (L1210 cells) | repression of ODC and AdoMetDC (ODC and AdoMetDC) | further results
1 | C=C=CCNCCCNCCCNCC=C=C [Compound 46] | 4.0 min | 1.0 p/mol/min/mg protein |  |  |  | 
2 | C=C=CCNCCCNCCCCCCCCNCCCNCC=C=C [Compound 51] | 2.0 min | 4.1 p/mol/min/mg protein |  |  |  | 
3 | NCCC[C@](N)(C(=O)O)C(F)F [DFMO, α-difluoromethylornithine] |  |  |  |  |  | inhibition of ODC (ODC): inhibits ODC; curative effect on erythrocytic forms of malaria in vivo (P. berghei; P. berghei in mice): no curative effects; parasitemia in P. berghei infections (P. berghei; P. berghei infections): significantly reduce parasitemia; sensitivity of Eimeria spp. (Eimeria spp.): sensitive; curative effect on erythrocytic forms of malaria in vivo (P. gallinaceum): no curative effects; sporogonous cycle in the mosquito vector (Plasmodia spp. [1]): completely inhibit the sporogonous cycle in the mosquito vector; exoerythrocytic schizogony in the liver (Plasmodia spp. [2]): inhibit the cycle in the liver of infected mice; sensitivity of Pneumocystis carinii (Pneumocystis carinii): sensitive; cure of acute infections of T. b. brucei (T. b. brucei): totally cure acute infections; erythrocytic replication (schizogony) (Plasmodia spp. [3]): block erythrocytic replication (schizogony) in culture in vitro
4 | CCNCCCCNCCCNCC [N^1,N^8 -bis(ethyl)spermidine] |  |  | leads to the depletion of the natural polyamines | will not support growth of L1210 cells | mimic the action of their parent polyamines in the repression of ODC and AdoMetDC | 
5 | CCNCCCNCCCCNCCCNCC [N^1,N^12 -bis(ethyl)spermine] |  |  | leads to the depletion of the natural polyamines | will not support growth of L1210 cells | mimic the action of their parent polyamines in the repression of ODC and AdoMetDC | 
